In US20030039672A1, “Cosmetic composition and method of treating skin” (Unilever Home & Personal Care USA, Division of Conopco, Inc., priority 2001, published 2003):

Experiments:
Type in all cases: cell-based
[1] = system: Human foreskin keratinocytes; experiment: DNA concentration of keratinocyte extract (Pico Green DNA assay); conditions: 4 days of treatment
Description: (§1) Human foreskin keratinocytes at passage 3 (P3) were seeded into 96 well plates at 4000 cells/well in Dubleccos Modified Eagles Medium (DMEM), 0.03 mM calcium. The cells were grown for 3 days prior to treatment. The treatment vehicle was DMSO. After 4 days of treatment, the cells were harvested and washed three times with 100 μl phosphate buffered saline (PBS). The cells were then extracted in 1% Triton X100, 50 mM Tris pH 8.0, 0.02 mM Leupeptin, 0.02 mM Pepstatin. 60 il/well of extract was then assayed for DNA concentration (ng/well), Pico Green DNA assay, Molecular Probes.

[2] = system: Human foreskin keratinocytes; experiment: Cornified envelope production in keratinocytes (silver-stained dot blot); conditions: for Cornified Envelope % Control / Cornified Envelope Mean: 4 days of treatment
Description: as §1
The cells were then washed in 200 μl PBS, and then 100 μl of 2% SDS, 20 mM DTT was added to each well. The plates were then sealed with a Titertek plate sealer (ICN) and incubated at 60° C. over night in an air tight damp environment (i.e. a sealed sandwich box lined with damp paper). The extract was then filtered through a PVDF transfer membrane (Bio-rad) under gravity using Dot-Blot apparatus (Bio-rad). The membrane is then washed in distilled water prior to silver staining (Bio-rad Silver Stain kit). The stained dot blot membrane is then analysed using Phoretix array software (Phoretix International).

[3] = system: decorin synthesis in human dermal fibroblasts; experiment: Dot blot assay for decorin protein in dermal fibroblast conditioned medium; conditions: for Decorin Level: 24 hours, relative to vehicle treated control value of 100
Description: (§2) Primary human foreskin fibroblasts at passage 2 (P2) were seeded into 12-well plates at 10000 cells/cm^2 and maintained for 24 hours in an atmosphere of 5% carbon dioxide and 4% oxygen in Dulbeccos Modified Eagles Medium (DMEM) supplemented with 10% foetal calf serum. After this time the cells were washed with serum free DMEM and then incubated in fresh serum free DMEM for a further 60 hours. The fibroblast monolayers were then washed again with serum free DMEM. Test reagents and vehicle controls were added to the cells in triplicate in a final volume of 0.4 ml/well fresh serum free DMEM and incubated for a further 24 hours. This fibroblast conditioned medium was either analysed immediately or snap frozen in liquid nitrogen and stored at −70° C. for future analysis. The cells were then counted and data from the dot-blot analysis subsequently standardised to cell number.
(§3) Samples of conditioned medium from dermal fibroblasts treated with vehicle (as a control) or test reagents were supplemented with 20 mM dithiothreitol (1:10 dilution of 200 mM stock solution) and 0.1% sodium dodecylsulphate (1:100 dilution of 10% stock solution), mixed well and then incubated at 75° C. for 2 minutes. A standard for the assay was generated by serial dilution of neat fibroblast conditioned medium from fibroblasts seeded at 10000 cells/cm^2 in a 175 cm^2 flask and maintained in serum free DMEM as described above. […]
(§4) Following this the Immobilon strips were again washed with TBS/Tween 20 (3×5 minutes) before being allowed to dry in air at room temperature. […] Dot intensity was assessed by computer-assisted image analysis using the quantification tools in ImageQuant™, standardised to cell number and the effects of various test reagents on decorin and procollagen-I synthesis were determined relative to a vehicle treated control value of 100 arbitrary units.
(§5) In order to normalise the results the effects of the test substance was determined relative to a vehicle treated control value of 100 arbitrary units.

[4] = system: procollagen-I synthesis in human dermal fibroblasts; experiment: Dot blot assay for procollagen-I protein in dermal fibroblast conditioned medium; conditions: for Procollagen Level: 24 hours, relative to vehicle treated control value of 100
Description: as §2, §3, §4, §5

[5] = human dermal fibroblasts, statement in words

CC/C=C\C/C=C\C/C=C\CCCCCC(=O)O [Hexadecatrienoic acid, hexadecatrienoic acid (C16:3(c7, c10, c13))]
DNA Results % Control ([1]; 0.1 μM): 59 % Control | DNA Results Mean ([1]; 0.1 μM): 0.98 ng/well | DNA Results % Control ([1]; 0.5 μM): 89 % Control | DNA Results Mean ([1]; 0.5 μM): 1.48 ng/well | DNA Results % Control ([1]; 1 μM): 76 % Control | DNA Results Mean ([1]; 1 μM): 1.27 ng/well | DNA Results % Control ([1]; 10 μM): 68 % Control | DNA Results Mean ([1]; 10 μM): 1.13 ng/well | Cornified Envelope % Control ([2]; 0.1 μM): 98 % Control | Cornified Envelope Mean ([2]; 0.1 μM): 17617 | Cornified Envelope % Control ([2]; 0.5 μM): 133 % Control | Cornified Envelope Mean ([2]; 0.5 μM): 24009 | Cornified Envelope % Control ([2]; 1 μM): 200 % Control | Cornified Envelope Mean ([2]; 1 μM): 36017 | Cornified Envelope % Control ([2]; 10 μM): 227 % Control | Cornified Envelope Mean ([2]; 10 μM): 40997 | cornified envelope production ([2]; 1-10 μM application, statement in words): increased | Decorin Level ([3]; 1 μM): 108.7 arbitrary units | Decorin Level ([3]; 10 μM): 115.4 arbitrary units | synthesis of decorin as compared to the control [3, 5]: significantly upregulates | Procollagen Level ([4]; 1 μM): 91.0 arbitrary units | Procollagen Level ([4]; 10 μM): 184.2 arbitrary units | synthesis of procollagen-I as compared to the control [4, 5]: significantly upregulates
